Data: patent publication US6187552A, “Method for identifying inhibitors of JAK2/cytokine receptor binding” (Pharmacia & Upjohn Company, priority 1998, dated 2001)

Test system: βc in human eosinophils
Test: Tyrosine phosphorylation of βc in human eosinophils stimulated with IL-5 (immunoblot)
Format: cell-based
Conditions: FIG. 2
Experimental: Eosinophils were isolated from human whole blood or granulocyte leukapheresis packs obtained from Pharmacia and Upjohn Clinical Research Unit--Kalamazoo, Mich. Only blood from donors who had >5% peripheral blood eosinophils was used, while leukapheresis donors usually had 3-5% eosinophils. One unit of whole blood was divided among 50-ml polypropylene centrifuge tubes and centrifuged for 20 minutes at 300×g at room temperature (RT). The plasma was removed and 50 ml were centrifuged at 2500×g for 15 minutes at RT to remove platelets. The resulting platelet poor plasma (ppp) was diluted 1:4 in normal saline.
Immediately after purification, eosinophils were resuspended at 2×10^7 cells/ml in RPMI 1640 medium (GibcoBRL, Gaithersburg, Md.) supplemented with 1% fetal bovine serum (FBS, GibcoBRL, Gaithersburg,Md.) and incubated 2 min at 37°. Recombinant human IL-5 (Biosource, Camarillo, Calif.) diluted in PBS with 0.1% bovine serum albumin was added at 12.5 ng/ml for various times using 1×10^7 cells per data point. Tubes were placed on ice and 10 volumes of PBS with 0.1 mM sodium orthovanadate were added to each tube. Eosinophils were pelleted by centrifugation at 300×g and resuspended in 0.6 ml lysis buffer (20 mM Tris-Cl, pH 7.4, 100 mM NaCl, 10 mM sodium pyrophosphate, 2 mM EDTA, 50 mM NaF, 1 mM sodium orthovanadate, 3% Triton X-100) with protease inhibitors (10 μg/ml aprotinin, 10 μg/ml leupeptin, and 0.2 mM phenylmethylsulfonyl fluoride).
After incubation on ice for 15 min, debris was pelleted by centrifugation at 16,000×g. βc was immunoprecipitated from the lysate by rotating overnight at 4° with a 1:300 dilution of anti-βcantibody (Upstate Biotechnology, Lake Placid, N.Y.). Twenty microliters of protein A-Sepharose (Pharmacia Biotech, Uppsala, Sweden) were added to each lysate, and the incubation was continued one hour. […]

With “IL-5: Recombinant human IL-5 (Biosource)” the “time of peak tyrosine phosphorylation of βc” value (12.5 ng/ml human IL-5, 37° C.) was 5 to 10 min, the “time to tyrosine phosphorylation of βc” value (12.5 ng/ml human IL-5, 37° C.) was at most 1 min and the “time by which dephosphorylation was evident” value (12.5 ng/ml human IL-5, continued presence) was at most 30 min.
